Assay results as given in publication PMC4149375, “Potential of 2-Hydroxy-3-Phenylsulfanylmethyl-[1,4]-Naphthoquinones against Leishmania (L.) infantum: Biological Activity and Structure-Activity Relationships” (PLoS ONE, 2014).
Where two headings read alike, the source gives them in different places.

Tests used:
[1] = system: intracellular L. (L.) infantum amastigotes; assay: Activity against intracellular amastigotes in infected macrophages, Giemsa counting; format: cell-based, Leishmania (L.) infantum; details: for IC50 / Amastigotes IC50 (C.I.95%): BALB/c peritoneal macrophages infected with amastigotes, 120 h at 37°C, na = not active; for IC50: read-out: Amastigotes IC50 (C.I.95%)
Experimental: (§1) L. (L.) infantum (MHOM/BR/1972/LD) promastigotes were maintained in M-199 medium supplemented with 10% fetal bovine serum (FBS) and 0.25% hemin at 24°C. L. (L.) infantum was maintained in golden hamsters for up to approximately 60–70 days post-infection. The amastigotes were obtained from the spleens of previously infected hamsters by differential centrifugation. The macrophages were collected from the peritoneal cavity of BALB/c mice by washing with RPMI-1640 (without phenol red and supplemented with 10% FBS). NCTC (clone 929) murine conjunctive cells were maintained in RPMI-1640 (without phenol red and supplemented with 10% FBS) at 37°C in a humidified containing 5% CO2.
The activity against intracellular L. (L.) infantum amastigotes was determined in infected macrophages. Macrophages were obtained as previously described and seeded for 24 h at 1×10^5 cells/well in 16-well slide chambers (Nunc). Amastigotes were isolated from the spleens of previously infected hamsters, separated by differential centrifugation and added to the macrophages at a ratio of 1∶10 (macrophage/amastigotes) for 24 h at 37°C. Non-internalized parasites were removed by washing once with medium and the cells were then incubated with the test compounds for 120 h at 37°C in 5% CO2, using miltefosine as standard drug. At the end of the assay, the cells were fixed in methanol, stained with Giemsa and observed under a light microscope to determine the number of intracellular parasites. The number of amastigotes was determined in 400 macrophages from the drug-treated and control wells [15].
(§2) The obtained data represent the mean and standard deviation of two independent experiments performed in duplicate. The IC50 and CC50 values were calculated using sigmoid dose-response curves performed using GraphPad Prism version 5.0 (GraphPad Software, San Diego, CA, USA), and the 95% confidence intervals (95% CI) were included. The ANOVA test was performed to evaluate the significance (p<0.05) of data.

[2] = system: NCTC clone 929 murine conjunctive cells; assay: Cytotoxicity against mammalian cells, MTT assay; format: cell-based; details: NCTC clone 929, 48 h at 37°C, highest concentration 200 µM; for CC50: read-out: Cytotoxicity CC50 (C.I.95%)
Experimental: as §1
(§3) NCTC cells were seeded at 6×10^4 cells/well in 96-well microplates at 37°C in a 5% CO2. The mammalian cells were incubated with tested compounds to the highest concentration of 200 µM for 48 h at 37°C, using miltefosine as standard drug. The viability of the cells was determined by MTT assay at 570 nm. The selectivity index (SI) was determined considering the following equation: CC50 NCTC cells/IC50 amastigotes.
as §2

[3] = system: L. (L.) infantum promastigotes; assay: Antileishmanial activity against promastigotes, MTT assay; format: cell-based, Leishmania (L.) infantum; details: 48 h at 24°C, highest concentration 200 µM, na = not active, read-out: Promastigotes IC50 (C.I.95%)
Experimental: as §1
Promastigotes were counted in a Neubauer hemocytometer and seeded at 1×10^6 cells per well in 96-well microplates using miltefosine as standard drug. The tested compounds were incubated at the highest concentration of 200 µM for 48 h at 24°C. Parasite viability was determined using the MTT assay. Briefly, 3-[4,5-dimethylthiazol-2-yl]-2,5-diphenyltetrazolium bromide (MTT) was dissolved in phosphate-buffered saline (PBS) at 5 mg/mL, sterilized through 0.22 µm membranes and incubated with cells (20 µL/well) for 4 h at 24°C. The extraction of the mitochondrial formazan was done with 80 µL of 10% SDS for 18 h at 24°C. The optical density was determined in FilterMax F5 (Molecular Devices) at 570 nm. Promastigotes incubated without compounds were used as the viability control (100% viability) and without cells (blank).
as §2

[4] = Cytotoxicity against mammalian cells, MTT assay; format: cell-based, murine; details: mouse, NCTC clone 929 murine conjunctive cells, NCTC clone 929, 48 h at 37°C, highest concentration 200 µM, read-out: Cytotoxicity CC50 (C.I.95%)
Experimental: as §1, §3, §2

Cc1ccc(SCC2=C(O)C(=O)c3ccccc3C2=O)cc1 [Compound 1]
IC50 [1]: > 200 µM | CC50 [2]: 89.1 µM | IC50 [3]: > 200 µM

O=C1C(O)=C(CSc2ccccc2)C(=O)c2ccccc21 [Compound 2]
Amastigotes IC50 (C.I.95%) [1]: no activity | CC50 [2]: 84.7 µM | IC50 [3]: 124 µM

COc1ccc(SCC2=C(O)C(=O)c3ccccc3C2=O)cc1 [Compound 3]
Amastigotes IC50 (C.I.95%) [1]: no activity | CC50 [2]: 92.6 µM | IC50 [3]: 75 µM

O=C1C(O)=C(CSc2ccc(Cl)cc2)C(=O)c2ccccc21 [Compound 4]
Amastigotes IC50 (C.I.95%) [1]: no activity | CC50 [2]: 82.2 µM | IC50 [3]: 85.4 µM

O=C1C(O)=C(CSc2ccc(F)cc2)C(=O)c2ccccc21 [Compound 5]
Amastigotes IC50 (C.I.95%) [1]: no activity | CC50 [2]: 97.9 µM | IC50 [3]: 129 µM

CSc1ccc(SCC2=C(O)C(=O)c3ccccc3C2=O)cc1 [Compound 6]
Amastigotes IC50 (C.I.95%) [1]: no activity | CC50 [2]: 100 µM | IC50 [3]: 188 µM

O=C1C(O)=C(CSc2ccc([N+](=O)[O-])cc2)C(=O)c2ccccc21 [Compound 7]
Amastigotes IC50 (C.I.95%) [1]: no activity | CC50 [2]: 85.5 µM | IC50 [3]: 8.44 µM

CCCSCC1=C(O)C(=O)c2ccccc2C1=O [Compound 9]
IC50 [1]: > 200 µM | Cytotoxicity CC50 (C.I.95%) [2]: lack of toxicity | CC50 [2]: > 200 µM | IC50 [3]: > 200 µM

Cc1ccccc1SCC1=C(O)C(=O)c2ccccc2C1=O [Compound 13]
IC50 [1]: > 200 µM | Cytotoxicity CC50 (C.I.95%) [2]: lack of toxicity | CC50 [2]: > 200 µM | IC50 [3]: > 200 µM

Cc1cccc(SCC2=C(O)C(=O)c3ccccc3C2=O)c1 [Compound 14]
IC50 [1]: > 200 µM | Cytotoxicity CC50 (C.I.95%) [2]: lack of toxicity | CC50 [2]: > 200 µM | IC50 [3]: > 200 µM

O=C1C(O)=C(CSc2ccc3ccccc3c2)C(=O)c2ccccc21 [Compound 15]
IC50 [1]: > 200 µM | Cytotoxicity CC50 (C.I.95%) [2]: lack of toxicity | CC50 [2]: > 200 µM | IC50 [3]: > 200 µM

O=C1C(O)=C(C(Sc2ccc([N+](=O)[O-])cc2)c2ccccc2)C(=O)c2ccccc21 (stereo not drawn) [Compound 19]
Amastigotes IC50 (C.I.95%) [1]: no activity | CC50 [2]: 69.5 µM | IC50 [3]: 9.06 µM

Cc1cccc(SC(C2=C(O)C(=O)c3ccccc3C2=O)c2ccccc2)c1 (stereo not drawn) [Compound 20]
IC50 [1]: 14.7 µM | CC50 [2]: 138 µM | IC50 [3]: 26.4 µM

CCCSC(C1=C(O)C(=O)c2ccccc2C1=O)c1ccccc1 (stereo not drawn) [Compound 24]
IC50 [1]: > 200 µM | Cytotoxicity CC50 (C.I.95%) [2]: lack of toxicity | CC50 [2]: > 200 µM | IC50 [3]: > 200 µM

Cc1ccc(SC(C2=C(O)C(=O)c3ccccc3C2=O)c2ccc([N+](=O)[O-])cc2)cc1 (stereo not drawn) [Compound 25]
Amastigotes IC50 (C.I.95%) [1]: no activity | CC50 [2]: 42.6 µM | IC50 [3]: 108 µM

O=C1C(O)=C(C(Sc2ccccc2)c2ccc([N+](=O)[O-])cc2)C(=O)c2ccccc21 (stereo not drawn) [Compound 28]
Amastigotes IC50 (C.I.95%) [1]: no activity | CC50 [2]: 94.2 µM | IC50 [3]: 40.1 µM

Cc1ccccc1SC(C1=C(O)C(=O)c2ccccc2C1=O)c1ccc([N+](=O)[O-])cc1 (stereo not drawn) [Compound 34]
Amastigotes IC50 (C.I.95%) [1]: no activity | CC50 [2]: 96 µM | IC50 [3]: 82.9 µM

CCCSC(C1=C(O)C(=O)c2ccccc2C1=O)c1ccc([N+](=O)[O-])cc1 (stereo not drawn) [Compound 35]
IC50 [1]: > 200 µM | CC50 [2]: 75.1 µM | IC50 [3]: > 200 µM

O=C1C(O)=C(C(Sc2ccc3ccccc3c2)c2ccc([N+](=O)[O-])cc2)C(=O)c2ccccc21 (stereo not drawn) [Compound 36]
IC50 [1]: > 200 µM | CC50 [2]: 58.2 µM | IC50 [3]: > 200 µM

CCCCCCCCCCCCCCCCOP(=O)([O-])OCC[N+](C)(C)C [miltefosine, reference compound]
S.I. selectivity index (CC50 mammalian cells/IC50 amastigotes) ([1]; CC50 NCTC cells/IC50 amastigotes): 6.85 | IC50 ([1]; Leishmania infantum, Peritoneal macrophage, in Mus musculus): 17.8 µM | CC50 at 48 h [4]: 122 µM | IC50 ([3]; Leishmania infantum): 16.9 µM
